Results: ChEMBL document CHEMBL1147573, “Chemiluminescence quenching of pteroic acid-N-sulfonyl-acridinium-9-carboxamide conjugates by folate binding protein” (Bioorg Med Chem Lett, 2004)

Test: Binding affinity towards folate binding protein

Row | SMILES | IC50
1 | Cc1ccc(S(=O)(=O)N(CCCS(=O)(=O)[O-])C(=O)c2c3ccccc3[n+](CCCCCCCCCC(=O)NCCCCCCNC(=O)c3ccc(N(Cc4cnc5nc(N)nc(O)c5n4)C(=O)C(F)(F)F)cc3)c3ccccc23)cc1 | 8.14 nM
2 | Cc1ccc(S(=O)(=O)N(CCCC(=O)NCCCCCCNC(=O)c2ccc(N(Cc3cnc4nc(N)nc(O)c4n3)C(=O)C(F)(F)F)cc2)C(=O)c2c3ccccc3[n+](CCCS(=O)(=O)[O-])c3ccccc23)cc1 | 8.43 nM
